Test results as given in US5885786A, “Methods for screening of substances for inhibition of multidrug resistance” (priority 1996, dated 1999).
Where two headings read alike, the source gives them in different places.

Legend:
[1] = tested on: glycosphingolipid synthesis in MCF-7-AdrR cells; assay: Synthesis of glycosphingolipids in MCF-7-AdrR cells labeled with [3H]galactose; assay type: cell-based; conditions: for inhibition at 5 µM: 5.0 μM tamoxifen, [3H]galactose 24 h, FIG. 10
Protocol: FIG. 10. […] Glc-cer, glycosylceramide; Lac-cer, lactosylceramide; Con, control; Tam, tamoxifen.
MCF-7 cells, grown in medium containing 10% FBS, were switched to media containing 5% FBS. Cell lipids were radiolabeled by adding [^3 H]serine (2.0 μCi/ml), [^3 H]palmitic acid (1.0 μCi/ml), or [^3 H]galactose (1.0 μCi/ml) to the culture medium for the indicated times. Other radiolabels can be substituted. Cells were then rinsed twice with PBS, pH 7.4, and 2 ml of ice-cold methanol containing 2% acetic acid was added. The cells were scraped free, transferred to glass test tubes (13×100 mm), and lipids were extracted by the addition of chloroform (2 ml) followed by water (2 ml). The resulting organic lower phase was withdrawn and evaporated under a stream of nitrogen. Lipids were resuspended in 100 μL of chloroform/methanol (1:1, v/v), and aliquots were applied to TLC plates.
When using [^3 H]galactose, radiolabeled cells were transferred to glass tubes with PBS (1 ml), glucocerebroside (2.5 μg) was added to aid recovery, and lipids were extracted consecutively three times with 2 ml of chloroform/methanol (1:1, v/v).

[2] = tested on: glycosylation of ceramide in MCF-7-AdrR cells (UDP-glucose:ceramide glucosyltransferase); assay: Glycosylation of C6-ceramide and natural glycosphingolipid synthesis, [3H]galactose labeling; assay type: cell-based; conditions: for inhibition at 5 µM: 5.0 μM tamoxifen, FIG. 14B
Protocol: FIG. 14A and FIG. 14B. Effect of Tamoxifen on Ceramide Synthesis and Glycosylation in MCF-7-AdrR Cells. FIG. 14: A Influence of tamoxifen on ceramide synthesis. The experiment was conducted as described in the legend to FIG. 13. Aliquots of the total lipid extract were based-hydrolyzed as described in Example I, separated by TLC using solvent system IV, and the resolved [^3 H]ceramide was quantitated by liquid scintillation spectrometry. Results are the mean±SEM of duplicate determinations from two separate experiments. FIG. 14B: Effect of tamoxifen on glycosylation of C6 -ceramide. Cells, in 100×20 mm culture dishes, were preincubated without or with 5.0 μM tamoxifen for 30 min, followed by incubation without or with 5.0 μM C6 -ceramide:BSA (prepared at a 1:1 molar ratio) for an additional 30 min. Cells were labeled thereafter with 1.0 μCi/ml [^3 H]galactose for 24 h. [3H]Galactose uptake was determined and found to be similar in all experimental points (1.0×10^6 cpm/dish). The total extracted lipid was applied to TLC separation and [^3 H]glycosphingolipids were analyzed as described in the legend to FIG. 10. The autoradiography of a representative chromatogram is shown.
In order to explore this notion, a short-chain ceramide analog with a 6-carbon N-acyl group (C6 -ceramide), was utilized as a substrate.

[3] = tested on: glycosylceramide synthesis in MCF-7-AdrR cells; assay: Glycosylceramide levels in MDR cells following drug treatment, [3H]serine 48 h; assay type: cell-based; conditions: FIG. 15B
[4] = tested on: acid sphingomyelinase; conditions: literature; cited from earlier work

Structure (SMILES): CC/C(=C(\c1ccccc1)c1ccc(OCCN(C)C)cc1)c1ccccc1 [tamoxifen]
- inhibition at 5 µM ([1]; read-out: reduction of ganglioside level): 33%
- inhibition at 5 µM ([1]; read-out: reduction of glycosylceramide level): 69%
- inhibition at 5 µM ([1]; read-out: reduction of lactosylceramide level): 74%
- synthesis of higher gangliosides (in words) ([1]; tamoxifen, MCF-7-AdrR): suppress synthesis of higher gangliosides
- inhibition at 5 µM ([2]; 5.0 μM C6-ceramide, read-out: inhibition of conversion of C6-ceramide to C6-glycosylceramide): 54%
- inhibition at 5 µM ([2]; in presence of C6-ceramide, read-out: inhibition of formation of natural glycosylceramide): 43%
- inhibition of glycosylation of C6-ceramide (in words) ([2]; tamoxifen): drastically inhibited
- inhibition of glycosylceramide synthesis (in words) ([3]; 5.0 μM, alone or with adriamycin 2.5 μM): greatly retarded
- inhibition of glycosylceramide production, tamoxifen added to adriamycin ([3]; tamoxifen 5.0 μM + adriamycin 2.5 μM): 72%
- inhibition of acid sphingomyelinase (in words) [4]: inhibition of acid sphingomyelinase activity
